According to ChEMBL document CHEMBL1201862, “PubChem BioAssay data set” (2004):
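Values below derive from 48-hour exposures of cells grown in 96-well plates, with endpoints linearly interpolated between the two concentrations bracketing the appropriate inhibition level. At the GI50, growth is halved.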 The source made the active and inactive calls. Cut-off read from the data, not from the text of the source: active = GI50 up to about 1.1 µM and inactive = higher.

Assays:
Assay in all cases: growth of human tumour cells (NCI), 48 h
[1] = system: HT-29
[2] = system: A549
[3] = system: HOP-62
[4] = system: SK-MEL-28
[5] = system: SK-OV-3
[6] = system: UACC-62
[7] = system: UACC-257
[8] = system: CCRF-CEM
[9] = system: OVCAR-3
[10] = system: DMS-114
[11] = system: SK-MEL-5
[12] = system: LOX IMVI
[13] = system: OVCAR-8
[14] = system: SK-MEL-2
[15] = system: SNB-75
[16] = system: U-251
[17] = system: SR

## CC(=O)O[C@H]1CCC2[C@@H]3CCC4C(=O)c5oncc5C[C@]4(C)C3CC[C@@]21C (stereo partly drawn)
[1]
  GI50: > 100 µM (inactive)
[2]
  GI50: > 100 µM (inactive)
[3]
  GI50: > 100 µM (inactive)
[4]
  GI50: > 100 µM (inactive)
[5]
  GI50: > 100 µM (inactive)
[6]
  GI50: 60.3 µM (inactive)
[7]
  GI50: > 100 µM (inactive)
[8]
  GI50: > 100 µM (inactive)
[9]
  GI50: > 100 µM (inactive)
[10]
  GI50: > 100 µM (inactive)
[11]
  GI50: > 100 µM (inactive)
[12]
  GI50: 28 µM (inactive)
[13]
  GI50: > 100 µM (inactive)
[14]
  GI50: > 100 µM (inactive)
[15]
  GI50: 50.2 µM (inactive)
[16]
  GI50: > 100 µM (inactive)

## C/C(CC(=O)NCCc1ccccc1)=N\NS(=O)(=O)c1ccc(C)cc1
[1]
  GI50: > 100 µM (inactive)
[2]
  GI50: > 100 µM (inactive)
[3]
  GI50: > 100 µM (inactive)
[4]
  GI50: > 100 µM (inactive)
[5]
  GI50: > 100 µM (inactive)
[6]
  GI50: > 100 µM (inactive)
[7]
  GI50: > 100 µM (inactive)
[8]
  GI50: > 100 µM (inactive)
[9]
  GI50: > 100 µM (inactive)
[10]
  GI50: > 100 µM (inactive)
[11]
  GI50: > 100 µM (inactive)
[12]
  GI50: > 100 µM (inactive)
[13]
  GI50: > 100 µM (inactive)
[14]
  GI50: > 100 µM (inactive)
[15]
  GI50: > 100 µM (inactive)
[16]
  GI50: > 100 µM (inactive)

## C=C(CCCO)[C@@H]1CC[C@@](C)(O)[C@H]1C
[17]
  GI50: > 100 µM (inactive)
[1]
  GI50: > 100 µM (inactive)
[2]
  GI50: > 100 µM (inactive)
[4]
  GI50: > 100 µM (inactive)
[5]
  GI50: 0.885 µM (active)
[6]
  GI50: > 100 µM (inactive)
[7]
  GI50: > 100 µM (inactive)
[9]
  GI50: > 100 µM (inactive)
[10]
  GI50: > 100 µM (inactive)
[11]
  GI50: > 100 µM (inactive)
[13]
  GI50: > 100 µM (inactive)
[14]
  GI50: > 100 µM (inactive)
[15]
  GI50: 33.1 µM (inactive)
[16]
  GI50: > 100 µM (inactive)

## CC(C)c1cccc(C(C)C)c1N1C(=O)C(=O)C(c2nc3ccccc3o2)C(=O)C1=O
[1]
  GI50: 30.3 µM (inactive)
[2]
  GI50: > 100 µM (inactive)
[3]
  GI50: > 100 µM (inactive)
[4]
  GI50: 32.7 µM (inactive)
[5]
  GI50: > 100 µM (inactive)
[6]
  GI50: 71.6 µM (inactive)
[7]
  GI50: > 100 µM (inactive)
[8]
  GI50: 8.95 µM (inactive)
[9]
  GI50: 33.7 µM (inactive)
[10]
  GI50: 24.5 µM (inactive)
[11]
  GI50: 38.5 µM (inactive)
[12]
  GI50: > 100 µM (inactive)
[13]
  GI50: > 100 µM (inactive)
[14]
  GI50: > 100 µM (inactive)
[15]
  GI50: 26.2 µM (inactive)
[16]
  GI50: > 100 µM (inactive)

## O=C(c1ccccc1)[C@@H]1C[C@H](Sc2ccccc2)c2cc(Cl)ccc2N1
[17]
  GI50: 14 µM (inactive)
[1]
  GI50: 22.2 µM (inactive)
[2]
  GI50: 28.5 µM (inactive)
[3]
  GI50: 51.6 µM (inactive)
[4]
  GI50: 17.9 µM (inactive)
[6]
  GI50: 19.5 µM (inactive)
[7]
  GI50: 17.1 µM (inactive)
[9]
  GI50: 23 µM (inactive)
[10]
  GI50: 21.1 µM (inactive)
[11]
  GI50: 11.7 µM (inactive)
[12]
  GI50: 23.5 µM (inactive)
[13]
  GI50: 23.4 µM (inactive)
[14]
  GI50: 31.8 µM (inactive)
[15]
  GI50: 18.8 µM (inactive)
[16]
  GI50: 21.2 µM (inactive)

## O=C(CCC(=O)Nc1ccc(Cl)c(Cl)c1)CC(=O)c1ccc(Br)cc1
[1]
  GI50: > 100 µM (inactive)
[2]
  GI50: > 100 µM (inactive)
[4]
  GI50: > 100 µM (inactive)
[5]
  GI50: > 100 µM (inactive)
[6]
  GI50: 36.2 µM (inactive)
[7]
  GI50: 49.4 µM (inactive)
[8]
  GI50: > 100 µM (inactive)
[9]
  GI50: > 100 µM (inactive)
[10]
  GI50: > 100 µM (inactive)
[11]
  GI50: > 100 µM (inactive)
[12]
  GI50: > 100 µM (inactive)
[13]
  GI50: > 100 µM (inactive)
[14]
  GI50: > 100 µM (inactive)
[15]
  GI50: 61.7 µM (inactive)
[16]
  GI50: > 100 µM (inactive)

## Nc1ccc(C(=O)NN2C(=O)C(Cl)C2c2ccccc2)cc1 (stereo not drawn)
[1]
  GI50: > 100 µM (inactive)
[2]
  GI50: > 100 µM (inactive)
[3]
  GI50: > 100 µM (inactive)
[4]
  GI50: > 100 µM (inactive)
[5]
  GI50: > 100 µM (inactive)
[6]
  GI50: > 100 µM (inactive)
[7]
  GI50: > 100 µM (inactive)
[8]
  GI50: > 100 µM (inactive)
[9]
  GI50: > 100 µM (inactive)
[10]
  GI50: > 100 µM (inactive)
[11]
  GI50: > 100 µM (inactive)
[12]
  GI50: > 100 µM (inactive)
[13]
  GI50: > 100 µM (inactive)
[14]
  GI50: > 100 µM (inactive)
[15]
  GI50: > 100 µM (inactive)
[16]
  GI50: > 100 µM (inactive)
